Where two headings read alike, the source gives them in different places. Each block holds one compound with its values, some of them ahead of it.
Legend:
HeLa (Cervical) = assay: Combination drug treatment, Combination Index and IC50 (Example 6); assay type: cell-based
Source text: (§1) Chou: Theoretical Basis, Experimental Design, and Computerized Simulation of Synergism and Antagonism in Drug Combination Studies, Pharmacological Reviews.

Mahlavu (HCC) = assay: as above; assay type: cell-based, Human
Source text: as §1

NPM = assay: Induction of NPM expression by cellular stresses (Example 2); assay type: cell-based, Human; settings: HCC cell lines following exposure; cisplatin 5.5, 69, 6.4 μg/ml, doxorubicin 1.4, 8.8, 5 μg/ml
Source text: (§2) A subset of NPM was translocated to cytoplasm 6 hr after UV irradiation (indicated by an arrow in the right panel).
(§3) The expression of β-actin was used as the loading control. Simultaneous induction of BAX (pro-apoptosis) and NPM (anti-apoptosis) of cells upon cellular stress represents counteracting mechanisms regulating apoptosis versus survival response.

BAX [1] = assay: Induction of BAX expression by cellular stresses (Example 2); assay type: cell-based, Human; settings: all three HCC cell lines following treatment
Source text: as §2, §3

BAX [2] = assay: BAX mitochondrial translocation and oligomerization in liver cancer cells (Example 4); assay type: cell-based, Human; settings: Hep3B and Mahlavu cells
Source text: FIG. 6A illustrates the expression of NPM and BAX in the cytosol and the mitochondria of Mahlavu liver cancer cells following UV irradiation with or without transfected siRNA targeting NPM (NPM) or siRNA with scrambled sequences (NS). FIG. 6B illustrates the effect of siNPM and siNS on BAX dimmers (indicated with an asterisk) and BAX oligomers (twin-asterisk) in the mitochondria or the nuclei.
FIG. 6A illustrates cytoplasmic NPM increased after UV irradiation, whereas BAX increased in the cytosol and mitochondria after UV irradiation. Suppressing NPM expression by siRNA reduced the cytosolic BAX, while mitochondrial BAX level increased. […] Prohibitin (PHB) and glyceraldehyde 3-phosphate dehydrogenase (GAPDH) were used as the markers for mitochondrial and cytosolic components, respectively. Similar result for mitochondrial BAX enhancement was observed by inhibiting NPM with chemotherapeutic agents, such as staurosporin in Hep3B and Mahlavu cells.
A non-reducing condition for preparing cellular proteins was employed to validate the above findings.

[3] = Homo sapiens, concentration of the named drug in Lapatinib + NSC348884 combination therapy, 72 hours, read-out: IC50 Combination Therapy
[4] = Homo sapiens, monotherapy, 72 hours after exposure, read-out: IC50 Monotherapy
[5] = concentration of the named drug in Lapatinib + NSC348884 combination therapy, 72 hours, read-out: IC50 Combination Therapy
[6] = monotherapy, 72 hours after exposure, read-out: IC50 Monotherapy

- IC50 (HeLa (Cervical); [3]): 18.4 µM
- IC50 (HeLa (Cervical); [4]): 20.8 µM
- IC50 (Mahlavu (HCC); [3]): 14.4 µM
- IC50 (Mahlavu (HCC); [4]): 12.8 µM
SMILES: CS(=O)(=O)CCNCc1ccc(-c2ccc3ncnc(Nc4ccc(OCc5cccc(F)c5)c(Cl)c4)c3c2)o1 [Lapatinib]

- IC50 (HeLa (Cervical); [5]): 4.92 µM
- IC50 (HeLa (Cervical); [6]): 6.24 µM
- IC50 (Mahlavu (HCC); [5]): 3.84 µM
- IC50 (Mahlavu (HCC); [6]): 6.15 µM
SMILES: Cc1ccc2nc(CN(CCN(Cc3nc4ccc(C)cc4[nH]3)Cc3nc4ccc(C)cc4[nH]3)Cc3nc4ccc(C)cc4[nH]3)[nH]c2c1 [NSC348884]

SMILES: N.N.[Cl][Pt][Cl] [cisplatin]
- NPM expression (NPM): upregulated
- BAX expression (BAX [1]): increased

SMILES: COc1cccc2c1C(=O)c1c(O)c3c(c(O)c1C2=O)C[C@@](O)(C(=O)CO)C[C@@H]3O[C@H]1C[C@H](N)[C@H](O)[C@H](C)O1 [doxorubicin]
- NPM expression (NPM): upregulated
- BAX expression (BAX [1]): increased

SMILES: CN[C@@H]1C[C@H]2O[C@@](C)([C@@H]1OC)n1c3ccccc3c3c4c(c5c6ccccc6n2c5c31)C(=O)NC4 [staurosporin]
- mitochondrial BAX (BAX [2]): enhancement
